As usually defined, the IC50 is the concentration at which inhibition is half-maximal.

One assay relates to THP-1 (AML) cells. Put plainly: LSD1 CD11b cellular assay (flow cytometry). The assay is classed as cell-based. Conditions: Homo sapiens, 96 h; CD11b expression in THP-1 (AML) cells, flow cytometry, 4 days incubation; read-out: Cellular IC50. In a few lines: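 THP-1 AML cells treated with serially diluted compound (0.2% DMSO final) for 4 days at 37 °C, 5% CO2. CD11b expression measured by flow cytometry with DAPI staining; IC50 derived from percent CD11b-positive cells versus inhibitor concentration.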

Another assay has as its target full-length human LSD1 (Homo sapiens (Human), UniProt O60341). Put plainly: In vitro enzyme inhibition assay LSD-1 (TR-FRET). Conditions: TR-FRET, 0.1 nM LSD1, 50 nM H3K4me1-biotin peptide, 2 μM FAD, pH7.3; read-out: LSD1 IC50. The assay is classed as biochemical. The method, then:
This assay determines the ability of a test compound to inhibit LSD1 demethylase activity.
The enzymatic assay of LSD1 activity is based on Time Resolved-Fluorescence Resonance Energy Transfer (TR-FRET) detection.
The ability of the compounds disclosed herein to inhibit LSD1 activity was quantified and the respective IC50 value was determined. Table 5 provides the IC50 values of various substituted heterocyclic compounds disclosed herein.
For orientation: TR-FRET usually uses a lanthanide donor and a delayed reading to cut background.

For `Cn1cc2cc(-c3cnc(N4CCC(N)CC4)nc3-c3ccc(C#N)cc3)ccc2n1` [Example 128, 4-[2-(4-aminopiperidin-1-yl)-5-(2-methylindazol-5-yl)pyrimidin-4-yl]benzonitrile], the IC50 in the assay on THP-1 (AML) cells and on full-length human LSD1 was less than 0.1 µM throughout.
For the compound `Cn1cc2ccc(-c3cnc(N4CCC(N)CC4)nc3-c3ccc(C#N)cc3)cc2n1` [Example 129, 4-[2-(4-aminopiperidin-1-yl)-5-(2-methylindazol-6-yl)pyrimidin-4-yl]benzonitrile], the IC50 with THP-1 (AML) cells and at full-length human LSD1 was less than 0.1 µM each time.
Take `Cn1cnc2cc(-c3cnc(N4CCC5CNCC5CC4)nc3-c3ccc(C#N)cc3)c(F)c(F)c21` (centres unmarked) [Example 130]: the IC50 with THP-1 (AML) cells and at full-length human LSD1 was less than 0.1 µM each time.
Take `N#Cc1ccc(-c2nc(N3CCC(N)CC3)ncc2-c2ccc(OCC(F)(F)F)nc2)cc1` [Example 131, 4-[2-(4-aminopiperidin-1-yl)-5-[6-(2,2,2-trifluoroethoxy)pyridin-3-yl]pyrimidin-4-yl]benzonitrile]: the results for the IC50 in the assay with THP-1 (AML) cells and at full-length human LSD1 were 0.1 to 1 µM and less than 0.1 µM, respectively.
Take `Cn1cnc2cc(-c3cnc(N4CCC(N)CC4)nc3-c3ccc(C#N)c(F)c3)c(F)c(F)c21` [Example 132, 4-[2-(4-aminopiperidin-1-yl)-5-(6,7-difluoro-1-methylbenzimidazol-5-yl)pyrimidin-4-yl]-2-fluorobenzonitrile]: the IC50 with THP-1 (AML) cells and on full-length human LSD1 was less than 0.1 µM each time.
As to `Cn1cnc2cc(-c3cnc(N4CCC(N)CC4)nc3-c3ccc(C#N)c(F)c3)c(F)cc21` [Example 133, 4-[2-(4-aminopiperidin-1-yl)-5-(6-fluoro-1-methylbenzimidazol-5-yl)pyrimidin-4-yl]-2-fluorobenzonitrile], the IC50 in the assay on THP-1 (AML) cells and on full-length human LSD1 was less than 0.1 µM each time.
As to `CN(C)c1ncc(-c2cnc(N3CCC(N)CC3)nc2-c2ccc(C#N)c(F)c2)cn1` [Example 134, 4-[2-(4-aminopiperidin-1-yl)-5-[2-(dimethylamino)pyrimidin-5-yl]pyrimidin-4-yl]-2-fluorobenzonitrile], the IC50 in the assay on THP-1 (AML) cells and on full-length human LSD1 was less than 0.1 µM throughout.
For the compound `N#Cc1ccc(-c2nc(N3CCC(N)CC3)ncc2-c2cnc(N3CCCC3)nc2)cc1F` [Example 135, 4-[2-(4-aminopiperidin-1-yl)-5-(2-pyrrolidin-1-ylpyrimidin-5-yl)pyrimidin-4-yl]-2-fluorobenzonitrile], the IC50 with THP-1 (AML) cells and on full-length human LSD1 was less than 0.1 µM throughout.
Take `Cn1cnc2cc(-c3cnc(N4CCC(N)CC4)nc3-c3ccc(C#N)c(F)c3)cnc21` [Example 136, 4-[2-(4-aminopiperidin-1-yl)-5-(3-methylimidazo[4,5-b]pyridin-6-yl)pyrimidin-4-yl]-2-fluorobenzonitrile]: the IC50 with THP-1 (AML) cells and on full-length human LSD1 was less than 0.1 µM throughout.
Regarding `Cn1cnc2cc(-c3cnc(N4CCC5(CCNC5)CC4)nc3-c3ccc(C#N)c(F)c3)cnc21` [Example 137, 4-[2-(2,8-diazaspiro[4.5]decan-8-yl)-5-(3-methylimidazo[4,5-b]pyridin-6-yl)pyrimidin-4-yl]-2-fluorobenzonitrile], the IC50 in the assay with THP-1 (AML) cells and at full-length human LSD1 was less than 0.1 µM in each case.
`Cc1nc2cc(-c3cnc(N4CCC(N)CC4)nc3-c3ccc(C#N)c(F)c3)ccc2n1C` [Example 138, 4-[2-(4-aminopiperidin-1-yl)-5-(1,2-dimethylbenzimidazol-5-yl)pyrimidin-4-yl]-2-fluorobenzonitrile]: the IC50 with THP-1 (AML) cells and at full-length human LSD1 was less than 0.1 µM in each case.
With `Cn1nnc2cc(-c3cnc(N4CCC(N)CC4)nc3-c3ccc(C#N)c(F)c3)cnc21` [Example 139, 4-[2-(4-aminopiperidin-1-yl)-5-(3-methyltriazolo[4,5-b]pyridin-6-yl)pyrimidin-4-yl]-2-fluorobenzonitrile], the IC50 in the assay with THP-1 (AML) cells and at full-length human LSD1 was less than 0.1 µM in each case.
With `CNc1ncc(-c2cnc(N3CCC(N)CC3)nc2-c2ccc(C#N)c(F)c2)cn1` [Example 140, 4-[2-(4-aminopiperidin-1-yl)-5-[2-(methylamino)pyrimidin-5-yl]pyrimidin-4-yl]-2-fluorobenzonitrile], the results for the IC50 in the assay with THP-1 (AML) cells and at full-length human LSD1 were 0.1 to 1 µM and less than 0.1 µM, respectively.
On to `N#Cc1ccc(-c2nc(N3CCC(N)CC3)ncc2-c2cnc(NC3CC3)nc2)cc1F` [Example 141, 4-[2-(4-aminopiperidin-1-yl)-5-[2-(cyclopropylamino)pyrimidin-5-yl]pyrimidin-4-yl]-2-fluorobenzonitrile], for which the IC50 in the assay on THP-1 (AML) cells and on full-length human LSD1 was less than 0.1 µM each time.
In the case of `N#Cc1ccc(-c2nc(N3CCC(N)CC3)ncc2-c2cnn(C3CCOCC3)c2)cc1F` [Example 142, 4-[2-(4-aminopiperidin-1-yl)-5-[1-(oxan-4-yl)pyrazol-4-yl]pyrimidin-4-yl]-2-fluorobenzonitrile], the IC50 with THP-1 (AML) cells and on full-length human LSD1 was less than 0.1 µM each time.
Consider `Cn1cc2cc(-c3cnc(N4CCC(N)C4)nc3-c3ccc(C#N)c(F)c3)ccc2n1` (centres unmarked) [Example 143, 4-[2-(3-aminopyrrolidin-1-yl)-5-(2-methylindazol-5-yl)pyrimidin-4-yl]-2-fluorobenzonitrile], for which the IC50 in the assay with THP-1 (AML) cells and at full-length human LSD1 was less than 0.1 µM each time.
Consider `Cn1cc2cc(-c3cnc(N4CC5C(N)C5C4)nc3-c3ccc(C#N)c(F)c3)ccc2n1` (centres unmarked) [Example 144, 4-[2-(6-amino-3-azabicyclo[3.1.0]hexan-3-yl)-5-(2-methylindazol-5-yl)pyrimidin-4-yl]-2-fluorobenzonitrile], for which the IC50 in the assay on THP-1 (AML) cells is 0.1 to 1 µM; at full-length human LSD1 it was less than 0.1 µM.
For the compound `Cn1ncc2cc(-c3cnc(N4CCC(N)CC4)nc3-c3ccc(C#N)c(F)c3)cnc21` [Example 145, 4-[2-(4-aminopiperidin-1-yl)-5-(1-methylpyrazolo[3,4-b]pyridin-5-yl)pyrimidin-4-yl]-2-fluorobenzonitrile], the IC50 in the assay on THP-1 (AML) cells and on full-length human LSD1 was less than 0.1 µM each time.
As for `N#Cc1ccc(-c2nc(N3CCC4CNCC4CC3)ncc2-c2ccc3scnc3c2)cc1` (centres unmarked) [Example 146, 4-[2-(2,3,3a,4,5,7,8,8a-octahydro-1H-pyrrolo[3,4-d]azepin-6-yl)-5-(1,3-benzothiazol-5-yl)pyrimidin-4-yl]benzonitrile], the IC50 with THP-1 (AML) cells and on full-length human LSD1 was less than 0.1 µM each time.
As for `COc1nc(N2CCC(N)CC2)nc(-c2ccc(C#N)c(F)c2)c1-c1ccc2nn(C)cc2c1` [Example 147, 4-[2-(4-aminopiperidin-1-yl)-6-methoxy-5-(2-methyl-2H-indazol-5-yl)pyrimidin-4-yl]-2-fluorobenzonitrile], the IC50 in the assay with THP-1 (AML) cells and on full-length human LSD1 was less than 0.1 µM each time.
Regarding `COc1nc(N2CCCNCC2)nc(-c2ccc(C#N)c(F)c2)c1-c1ccc2nn(C)cc2c1` [Example 148, 4-[2-(1,4-diazepan-1-yl)-6-methoxy-5-(2-methyl-2H-indazol-5-yl)pyrimidin-4-yl]-2-fluorobenzonitrile], the IC50 in the assay with THP-1 (AML) cells and on full-length human LSD1 was less than 0.1 µM in each case.
As for `COc1nc(N2CCCC(N)CC2)nc(-c2ccc(C#N)c(F)c2)c1-c1ccc2nn(C)cc2c1` (centres unmarked) [Example 149, 4-[2-(4-aminoazepan-1-yl)-6-methoxy-5-(2-methyl-2H-indazol-5-yl)pyrimidin-4-yl]-2-fluorobenzonitrile], the IC50 in the assay on THP-1 (AML) cells and on full-length human LSD1 was less than 0.1 µM in each case.

(Values after patent US10131664B2 (Celgene Quanticel Research, Inc., priority 2013, dated 2018).)
